Test results published in patent US10220096B2, “Injectable and stable hydrogels with dynamic properties modulated by biocompatible catalysts” (The Board of Trustees of the Leland Stanford Junior …, priority 2016, dated 2019).

Experiments:
[1] = Kinetic measurements on hydrazone exchange (model reaction, HPLC); settings: for k1, rate of hydrazone formation / k−1, rate of hydrazone cleavage: PBS pH about 7.4, about 37° C.
Method: 2-(aminomethyl)benzimidazole (1 in FIG. 2) is an efficient catalyst to accelerate hydrazone formation owing to facilitated intramolecular proton transfer in the transition state. The rates for hydrazone formation (k1) and cleavage (k−1) in the presence of 1 were measured using model reactions between hydrazine and aldehyde and modeled for a reversible second-order reaction (FIG. 8), and the equilibrium constant (Keq) was calculated from these rate constants. […] The gelation time of the HA-hydrazone hydrogels was dramatically shortened in the presence of 1. […] In the presence of about 25 mM of 1, gelation occurred in less than about 60 s and reached a final plateau shear modulus of about 800 Pa in about 5 min (FIG. 3b). Increasing the catalyst loading to about 100 mM further shortened the time to reach equilibrium to about 3 min (FIG. 3b). As shown in the frequency sweep experiment (FIG. 3c), stable gels were formed with a plateau storage modulus (G′) of about 1 kPa, which is more than an order of magnitude higher than the loss modulus (G″). […] In contrast, altering the HA polymer composition from about 1 to about 4 wt. % increased the plateau modulus (FIG. 3c). […] The rate of stress relaxation under constant strain was quantified by the time for the initially measured stress to relax to half of its original value, τ1/2. […] Accelerated hydrazone exchange by an incorporated catalyst also allowed these hydrogels to be readily remolded macroscopically (FIG. 9), facilitating their injection and re-processing. […] Therefore, the design provides a strategy to tune the modulus and rate of stress relaxation, two important mechanical properties for dynamic hydrogel materials, independently and continuously by polymer concentration and catalyst concentration, respectively.
The equilibrium constant (Keq) and rate constants for hydrazone formation (k1) and cleavage (k−1) between aldehyde S1 and hydrazine S3 as model compounds with different concentrations of catalyst 1 were measured by HPLC. S3 was synthesized by coupling N-(2-aminoethyl)-4-amino-1,8-naphthalimide with hydrazine using carbodiimide chemistry. About 2 mM stock solutions of hydrazine and aldehyde were prepared in a PBS buffer (1×, pH of about 7.4). An about 250 mM stock solution of catalyst 1 was prepared in PBS as described in the previous sections.
For the reactions performed in the absence of catalyst, about 10 μL of hydrazine and about 10 μL of aldehyde stock solutions were added to about 980 μL PBS buffer (1×, pH of about 7.4). For the reactions performed in the presence of catalyst 1, the appropriate amount of catalyst 1, hydrazine, and aldehyde were sequentially added to PBS buffer (1×, pH of about 7.4) from their stock solutions, maintaining the same concentrations for hydrazine and aldehyde as those without a catalyst. The reactions were performed at about 37° C. in a water bath and followed using HPLC with detection at about 420 nm absorption (HPLC conditions: XBridge 10 μm C18 column; about 40% acetonitrile in PBS buffer (pH of about 7) isocratic elution in about 7 min at a flow rate of about 0.34 mL/min. The concentrations and conversions were calculated from the integrals of the HPLC signals. The kinetic data of hydrazone formation were fitted to a kinetic model for 2nd order reactions using Matlab (FIG. 8).
Conditions: about 137 mM NaCl, about 2.7 mM KCl, about 12 mM phosphate, pH of about 7.4 buffer, about 37° C.

[2] = Rheological tests of HA-hydrazone hydrogels (time sweep, frequency sweep, stress relaxation); assay type: physicochemical; settings: for τ1/2, time for stress to relax to half of its original value: about 10% strain
Method: HA-hydrazine and HA-aldehyde were first solubilized in PBS (1×, pH of about 7.4) at 5 wt. % respectively. Catalyst 1 and 2 were dissolved in PBS (1×, pH of about 7.4) and adjusted pH to about 7.4 at a stock concentration of about 250 mM. HA hydrogels were prepared by mixing HA-hydrazine, catalyst, and HA-aldehyde stock solutions successively at hydrazine to aldehyde (molar) ratio of about 1:1. The volumes of stock solutions were adjusted to make gels with different formulations.
Rheological characterization was performed on a stress-controlled rheometer (AR-G2, TA instrument) using a 20 mm cone plate. About 45 μL of a sample was loaded immediately onto the rheometer after mixing to gel in situ on the rheometer and a humidity chamber was secured in place to prevent dehydration. All the tests were performed at about 37° C. Time sweeps were performed at about 1 Hz at about 1% constant strain. Frequency sweeps were performed from about 0.1 to about 10 Hz at about 1% constant strain. Stress relaxation experiments were performed at about 10% strain.

[3] = system: Human Umbilical Vein Endothelial Cells (HUVECs); assay: Catalyst toxicity, MTT cell viability assay; assay type: cell-based; settings: 2D culture
Method: Human Umbilical Vein Endothelial Cells (HUVECs) were obtained from Lonza. HUVECs were expanded in growth medium composed of about 10% fetal bovine serum, about 1% penicillin/streptomycin in EBM-2. The medium was changed every about 3 d and the cells were passaged at about 70% confluency. Cells were used at passage 5 or lower for all experiments.
HUVECs pre-seeded in 96-well plates at about 10^4 cells/well were incubated with catalysts 1 and 2 for about 1 h, about 4 h, about 24 h and about 72 h. Afterwards, the cells were washed with PBS, the cell viability MTT assay was carried out to determine the cell viabilities relative to the control cells incubated with the same volume of PBS.

[4] = Compression test, remoldability of hydrogels; assay type: physicochemical; settings: hydrogel containing about 100 mM of 1
Source text: FIG. 9. Compression test showing remoldability of HA-hydrazone hydrogels was improved with the addition of a catalyst.

[5] = system: HUVECs encapsulated in hydrogel; assay: In vitro cell injection and quantification of viability (LIVE/DEAD); assay type: cell-based, Human; settings: about 2 wt. % hydrogel with about 25 mM of 2, 28-gauge needle, about 20 min post-injection
Method: (§1) Evaluation was performed on the effect of catalyst 2 incorporated in HA-hydrazone hydrogels on the protection of encapsulated cells during injection. HUVECs were homogeneously encapsulated in about 2 wt. % hydrogels containing about 25 mM of 2 by rapidly mixing the cells suspended in HA solutions with catalyst and transferring to a syringe. Hydrogel was rapidly formed in the syringe and ejected through a 28-gauge syringe needle. A syringe pump was used for all cell injection experiments to ensure consistent flow rate for accurate comparison between all samples.
After injection, cells encapsulated in the hydrogels were incubated for about 20 min, and cell viability was then analyzed using a LIVE/DEAD staining assay.
Cell suspension was first mixed with HA-hydrazine stock solutions before further mixing with catalyst and HA-aldehyde stock solutions. All in vitro injection experiments were performed with about 30 μL gel volume containing about 3×10^4 cells. For cell injection, the final mixing stage was performed in the barrel of an about 1 mL insulin syringe fitted with a 28 gauge needle. […] Cell viability was determined using LIVE/DEAD viability/cytotoxicity kit (Invitrogen) at about 20 min post-injection and about 3 d post-injection (n=5). […] Cell numbers were quantified using ImageJ at each time point.

[6] = Ejection of hydrogel through 28-gauge syringe needle (injectability); assay type: physicochemical; settings: about 2 wt. % hydrogel with about 25 mM of 2
Method: as §1

[7] = Catalyst diffusion out of hydrogel (UV absorption at about 281 nm); assay type: physicochemical; settings: about 50 μL hydrogel in about 1 mL PBS
Method: Long-term stability of hydrogel scaffolds is often desired to provide support for cell adhesion and growth after cell injection. Rapid hydrogel erosion is a challenge for many dynamic and injectable hydrogels. It is proposed that rapid passive diffusion of the dissolved small molecule catalyst away from the hydrogel post-injection would slow down the dynamic exchange of hydrazone crosslinks and thus enhance the hydrogel stability. Therefore evaluation was performed to monitor the diffusion of 2, which was incorporated in the hydrogel at either about 25 mM or about 50 mM initial concentration, into the buffer solution after injection by monitoring its absorption at about 281 nm. After about 50 μL hydrogel was injected and immersed in about 1 mL PBS, about 60% of 2 diffused out of the hydrogel within about 1 h, and less than about 1% remained inside the gel after about 8 h (FIG. 5a). […]
(§2) HA hydrogels containing 0, about 25, and about 50 mM of catalyst 2 were prepared as described in the previous section. […] Catalyst diffusion was quantified using UV measurement by monitoring absorption at about 281 nm. HA erosion was quantified by uronic acid assay according to reported procedures.

[8] = Hydrogel erosion study (uronic acid assay); assay type: physicochemical
Method: Long-term stability of hydrogel scaffolds is often desired to provide support for cell adhesion and growth after cell injection. Rapid hydrogel erosion is a challenge for many dynamic and injectable hydrogels. It is proposed that rapid passive diffusion of the dissolved small molecule catalyst away from the hydrogel post-injection would slow down the dynamic exchange of hydrazone crosslinks and thus enhance the hydrogel stability. Therefore evaluation was performed to monitor the diffusion of 2, which was incorporated in the hydrogel at either about 25 mM or about 50 mM initial concentration, into the buffer solution after injection by monitoring its absorption at about 281 nm. After about 50 μL hydrogel was injected and immersed in about 1 mL PBS, about 60% of 2 diffused out of the hydrogel within about 1 h, and less than about 1% remained inside the gel after about 8 h (FIG. 5a). To examine whether the rapid diffusion and thus removal of catalyst can increase the long-term stability of the hydrogels, comparison is performed of the erosion rate of hydrogels with different initial concentrations of incorporated catalyst. […] Hydrogels initially containing about 25 mM or about 50 mM of catalyst 2 had erosion rates of about 3.8 and about 4.1% per day respectively, similar to those without a catalyst (FIG. 5b), presumably due to rapid diffusion of 2 out of the hydrogels. In contrast, when diffusion of 2 away from the hydrogel was prevented by immersing the hydrogel into a buffer solution containing about 25 mM of 2, the hydrogel was completely dissolved within about 12 h (FIG. 12). […]
as §2

[9] = about 2 wt. % HA hydrogel, about 25 mM of 1

**Q.** Which results are given for `NCc1nc2ccccc2[nH]1` [catalyst 1, 2-(aminomethyl)benzimidazole]?
**A.** k1, rate of hydrazone formation ([1]; 25 mM of 1): 127 M⁻¹ s⁻¹; k−1, rate of hydrazone cleavage ([1]; 25 mM of 1): 0.00103 s⁻¹; k1, rate of hydrazone formation ([1]; 50 mM of 1): 250 M⁻¹ s⁻¹; k−1, rate of hydrazone cleavage ([1]; 50 mM of 1): 0.00203 s⁻¹; k1, rate of hydrazone formation ([1]; 100 mM of 1): 495 M⁻¹ s⁻¹; k−1, rate of hydrazone cleavage ([1]; 100 mM of 1): 0.00401 s⁻¹; enhancement of k1 ([1]; about 25 mM of 1): about 24 fold; enhancement of k−1 ([1]; about 25 mM of 1): about 24 fold; enhancement of k1 ([1]; about 50 mM of 1): about 47 fold; enhancement of k−1 ([1]; about 50 mM of 1): about 47 fold; enhancement of k1 ([1]; about 100 mM of 1): about 94 fold; enhancement of k−1 ([1]; about 100 mM of 1): about 94 fold; τ1/2, time for stress to relax to half of its original value ([2]; about 25 mM of 1): about 10 min; τ1/2, time for stress to relax to half of its original value ([2]; about 100 mM of 1): about 3 min; final plateau shear modulus [2, 9]: about 800 Pa; time to reach final plateau shear modulus [2, 9]: about 5 min; gelation time ([2]; about 2 wt. % HA hydrogel, about 25 mM of 1, about 37° C.): less than 60 s; time to reach equilibrium (gelation) ([2]; about 2 wt. % HA hydrogel, about 100 mM of 1): about 3 min; HUVEC cell death ([3]; about 25 mM, within several hours): Significant cell death; remoldability after pressing from about 2.4 mm to about 0.6 mm for about 5 min [4]: adopted the height of the mold

**Q.** With `NCc1nc2ccccc2n1CCCS(=O)(=O)O` [catalyst 2] as the compound, how does the HUVEC cell death ([3]; about 5 mM, after about 3 days) read?
**A.** The HUVEC cell death was “negligible cell death”.

**Q.** What about the cells remaining viable ([3]; about 25 mM, about 24 h exposure) of the same compound?
**A.** Its cells remaining viable is “about 85%”.

**Q.** What about the “cell viability after injection” value [5] of the same compound?
**A.** The value was “about 87%”.

**Q.** And the “injectability through 28-gauge needle” value [6]?
**A.** The value was “readily ejected through the thin needle without clogging”.

**Q.** What about the “fraction of catalyst remaining inside the gel” value ([7]; after about 8 h) of the same compound?
**A.** The value was “less than 1%”.

**Q.** What about the “fraction of catalyst diffused out of the hydrogel” value ([7]; within about 1 h, about 25 or 50 mM initial) of the same compound?
**A.** The value was “about 60%”.

**Q.** What about the “time to complete dissolution of hydrogel” value ([8]; hydrogel immersed in buffer containing about 25 mM of 2 (diffusion prevented)) of the same compound?
**A.** Its value is ≤ 12 h.

**Q.** And the erosion rate ([8]; hydrogel initially containing about 25 mM of catalyst 2)?
**A.** Its erosion rate is “about 3.8 % per day”.

**Q.** What about the erosion rate ([8]; hydrogel initially containing about 50 mM of catalyst 2) of the same compound?
**A.** Its erosion rate is “about 4.1 % per day”.
